Among the data in patent US9670227B2, “Thienopyrimidine derivatives, a process for their preparation and pharmaceutical compositions containing them” (LES LABORATOIRES SERVIER, priority 2013, dated 2017) are IC50 values, retold here.

One experiment deals with Mcl-1 protein (UniProtKB primary accession number: Q07820) (Homo sapiens, UniProt Q07820). The experiment is described as follows: Inhibition of Mcl-1 by fluorescence polarisation, Method 1. The class given is binding. Conditions: fluorescence polarisation; Method 1, or Method 2; read-out: IC50 (M) Mcl-1 FP. Summed up: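 Fluorescence polarisation competition with an 11-point compound dilution series (final DMSO 5%). Mcl-1 protein at 5 nM and fluorescein-labelled ligand at 1 nM (final) in 10 mM HEPES, 150 mM NaCl, 0.05% Tween 20, pH 7.4.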
Chain of Mcl-1 protein (Q07820 whole entry): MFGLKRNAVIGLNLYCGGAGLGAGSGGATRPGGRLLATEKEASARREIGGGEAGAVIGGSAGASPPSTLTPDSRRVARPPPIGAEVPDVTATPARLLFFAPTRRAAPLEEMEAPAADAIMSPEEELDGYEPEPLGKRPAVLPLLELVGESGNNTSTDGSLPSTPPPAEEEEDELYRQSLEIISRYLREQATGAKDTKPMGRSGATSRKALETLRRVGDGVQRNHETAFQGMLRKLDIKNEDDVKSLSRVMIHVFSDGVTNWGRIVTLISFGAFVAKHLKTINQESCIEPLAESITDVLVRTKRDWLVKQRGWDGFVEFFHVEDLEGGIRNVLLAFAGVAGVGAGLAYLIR

Experiment [1] relates to H929 multiple myeloma tumour line. The experiment is described as follows: In vitro cytotoxicity, Microculture Tetrazolium Assay. In kind it is cell-based. Conditions: Homo sapiens, NCI-H929, 48 h, H929 cells, 48 hours exposure, MTT; read-out: IC50 (μM) MTT H929. The procedure:
The cytotoxicity studies were carried out on the H929 multiple myeloma tumour line.
The cells are distributed onto microplates and exposed to the test compounds for 48 hours.

As usually defined, the IC50 is the concentration at which inhibition is half-maximal.

Regarding `CCc1sc2ncnc(OC(Cc3ccccc3)C(=O)O)c2c1-c1ccc(OCC(=O)N2CCOCC2)c(Cl)c1C` [Example 393, (2R)-2-[((5Sa)-5-{3-chloro-2-methyl-4-[2-(morpholin-4-yl)-2-oxoethoxy]phenyl}-6-ethylthieno[2,3-d]pyrimidin-4-yl)oxy]-3-phenylpropanoic acid], the half-maximal inhibitory concentration (IC50) at Mcl-1 protein stood at 4.1e-08 M; in experiment [1], 16.6 µM.

Take `CCc1sc2ncnc(OC(Cc3ccccc3)C(=O)O)c2c1-c1ccc(OCCc2cccnc2)c(Cl)c1C` [Example 396, (2R)-2-[((5Sa)-5-{3-chloro-2-methyl-4-[2-(pyridin-3-yl)ethoxy]phenyl}-6-ethylthieno[2,3-d]pyrimidin-4-yl)oxy]-3-phenylpropanoic acid]: the IC50 at Mcl-1 protein came to 9.9e-08 M; in experiment [1] it was 16.1 µM.

As to `CCc1sc2ncnc(OC(Cc3ccccc3)C(=O)O)c2c1-c1ccc(OCCc2ccncc2)c(Cl)c1C` [Example 397, (2R)-2-[((5Sa)-5-{3-chloro-2-methyl-4-[2-(pyridin-4-yl)ethoxy]phenyl}-6-ethylthieno[2,3-d]pyrimidin-4-yl)oxy]-3-phenylpropanoic acid], the IC50 at Mcl-1 protein is 8e-09 M; in experiment [1] it was 15.7 µM.

On to `CCCCOc1ccc(-c2c(CC)sc3ncnc(OC(Cc4ccccc4)C(=O)O)c23)c(C)c1Cl` [Example 398, (2R)-2-{[(5Sa)-5-(4-butoxy-3-chloro-2-methylphenyl)-6-ethylthieno[2,3-d]pyrimidin-4-yl]oxy}-3-phenylpropanoic acid], for which the half-maximal inhibitory concentration (IC50) at Mcl-1 protein was 1.5e-06 M; in experiment [1], 23.8 µM.

As for `CCc1sc2ncnc(OC(Cc3ccccc3)C(=O)O)c2c1-c1ccc(OCCCN(C)C)c(Cl)c1C` [Example 400, (2R)-2-[((5Sa)-5-{3-chloro-4-[3-(dimethylamino)propoxy]-2-methylphenyl}-6-ethylthieno[2,3-d]pyrimidin-4-yl)oxy]-3-phenylpropanoic acid], the results for the concentration for half-maximal inhibition (IC50) (on Mcl-1 protein; in experiment [1]) were 8.4e-08 M and 14.4 µM, respectively.

`CCc1sc2ncnc(OC(Cc3ccccc3)C(=O)O)c2c1-c1ccc(OCCCN2CCCC2=O)c(Cl)c1C` [Example 401, (2R)-2-[((5Sa)-5-{3-chloro-2-methyl-4-[3-(2-oxopyrrolidin-1-yl)propoxy]phenyl}-6-ethylthieno[2,3-d]pyrimidin-4-yl)oxy]-3-phenylpropanoic acid]: the IC50 at Mcl-1 protein stood at 4.9e-08 M; in experiment [1] it was 22.3 µM.

Turning to `CCc1sc2ncnc(OC(Cc3ccccc3)C(=O)O)c2c1-c1ccc(OCCCN2CCN(C)CC2)c(Cl)c1C` [Example 402, (2R)-2-[((5Sa)-5-{3-chloro-2-methyl-4-[3-(4-methylpiperazin-1-yl)propoxy]phenyl}-6-ethylthieno[2,3-d]pyrimidin-4-yl)oxy]-3-phenylpropanoic acid], the IC50 was 6.6e-08 M at Mcl-1 protein and 10.4 µM in experiment [1].

With `CCNC(=O)NCCCOc1ccc(-c2c(CC)sc3ncnc(OC(Cc4ccccc4)C(=O)O)c23)c(C)c1Cl` [Example 404, (2R)-2-{[(5Sa)-5-(3-chloro-4-{3-[(ethylcarbamoyl)amino]propoxy}-2-methylphenyl)-6-ethylthieno[2,3-d]pyrimidin-4-yl]oxy}-3-phenylpropanoic acid], the concentration for half-maximal inhibition (IC50) was found to be 5.7e-08 M on Mcl-1 protein and 21.6 µM in experiment [1].

Regarding `CCc1sc2ncnc(OC(Cc3ccccc3)C(=O)O)c2c1-c1ccc(OCCCS(C)(=O)=O)c(Cl)c1C` [Example 406, (2R)-2-[((5Sa)-5-{3-chloro-2-methyl-4-[3-(methylsulfonyl)propoxy]phenyl}-6-ethylthieno[2,3-d]pyrimidin-4-yl)oxy]-3-phenylpropanoic acid], the concentration for half-maximal inhibition (IC50) came out at 3.5e-08 M on Mcl-1 protein and 21.9 µM in experiment [1].

Turning to `CCc1sc2ncnc(OC(Cc3ccccc3)C(=O)O)c2c1-c1ccc(OCCN(C)C)c(Cl)c1C` [Example 407, (2R)-2-[((5Sa)-5-{3-chloro-4-[2-(dimethylamino)ethoxy]-2-methylphenyl}-6-ethylthieno[2,3-d]pyrimidin-4-yl)oxy]-3-phenylpropanoic acid], the IC50 on Mcl-1 protein came to 1.1e-07 M; in experiment [1], 7.33 µM.
